Assay results: US20060247223A1, “Non-imidazole alkylamines as histamine H3- receptor ligands and their therapeutic applications” (priority 1998, published 2006)
Counter-ions that a name gives are not always drawn.

Question: With Cc1ccc(OCCCCCN2CCCC2)cc1 (as salt: oxalate) [Example 21, 1-[5-(4-methylphenoxy)-pentyl]-pyrrolidine] as the compound, how does the melting point read?
Answer: Its melting point is 138 to 140 °C.

Question: With CC1CCN(CCCOc2ccc(C#N)cc2)CC1 (as salt: hydrochloride) [Example 78, 1-[3-(4-cyanophenoxy)propyl]-4-methylpiperidine] as the compound, how does the melting point read?
Answer: The melting point was 200 to 202 °C.

Question: Which melting point does the source give for O=[N+]([O-])c1cccc(OCCCCCN2CCCC2)c1 (as salt: oxalate) [Example 36, 1-[5-(3-nitrophenoxy)-pentyl]-pyrrolidine] here?
Answer: Its melting point is 130 to 131 °C.

Question: With CC1CCCCN1CCCCCOc1ccccc1 (stereo not shown) (as salt: oxalate) [Example 7, 1-(5-phenoxypentyl)-2-methyl-piperidine] as the compound, how does the melting point read?
Answer: Its melting point is 80 to 83 °C.

Question: Which melting point does the source give for CC(=O)c1ccc(OCCCN2CCCCC2)cc1 (as salt: oxalate) [Example 65, 1-[3-(4-acetylphenoxy)-propyl]-piperidine] here?
Answer: The melting point was 159 to 160 °C.

Question: For CCC(C)c1ccc(OCCCN2CCCCC2)cc1 (stereo not shown) (as salt: oxalate) [Example 112, 1-[3-(4-sec-butylphenoxy)propyl]pipenidine], which melting point is on record?
Answer: Its melting point is 133 to 136 °C.

Question: With CCOC(=O)C1CCCN(CCCCCOc2ccccc2)C1 (stereo not shown) (as salt: oxalate) [Example 16, 3-carboethoxy-1-(5-phenoxypentyl)-piperidine] as the compound, how does the melting point read?
Answer: Its melting point is 117 to 118 °C.

Question: For CN(C)CCCOc1ccc(C#N)cc1 (as salt: oxalate) [Example 55, N-[3-(4-cyanophenoxy)-propyl]-dimethylamine], which melting point is on record?
Answer: Its melting point is 166 to 167 °C.

Question: Which melting point does the source give for CCC(=NOC)c1ccc(OCCCN2CCCCC2C)cc1.Cl (stereo not shown) here?
Answer: Its melting point is 185 to 187 °C.

Question: For N#Cc1ccc(OCCCN2CCCCC2)cc1F (as salt: hydrochloride) [Example 82, 1-[3-(4-cyano-3-fluorophenoxy)propyl]piperidine], which melting point is on record?
Answer: The melting point was 157 to 159 °C.

Question: Which melting point does the source give for CC(=O)c1ccc(OCCCN2C[C@@H](C)C[C@H](C)C2)cc1 (stereo in doubt) (as salt: oxalate) [Example 67, 1-[3-(4-acetylphenoxy)-propyl]-3,5-trans-dimethyl-piperidine] here?
Answer: The melting point was 171 to 172 °C.

Question: For c1cc2c(cc1OCCCCCN1CCCC1)CCCC2 (as salt: oxalate) [Example 27, 1-{5-[2-(5,6,7,8-tetrahydronaphthyl)-oxy]-pentyl}-pyrrolidine], which melting point is on record?
Answer: The melting point was 131 to 132 °C.

Question: With CC1CCCN(CCCOc2ccc(C#N)cc2)C1.Cl (stereo not shown) as the compound, how does the melting point read?
Answer: Its melting point is 171 to 173 °C.

Question: With N#Cc1ccc(OCCCN2CCCCC2)cc1 (as salt: oxalate) [Example 59, 1-[3-(4-cyanophenoxy)propyl]piperidine] as the compound, how does the melting point read?
Answer: Its melting point is 151 to 153 °C.

Question: With c1ccc(Oc2ccc(OCCCCCN3CCCC3)cc2)cc1 (as salt: oxalate) [Example 48, 1-[5-(4-phenoxyphenoxy)-pentyl]-pyrrolidine] as the compound, how does the melting point read?
Answer: The melting point was 135 to 136 °C.

Question: For c1ccc(SCCCCCN2CCCC2)cc1 (as salt: oxalate) [Example 33, 1-(5-phenylthiopentyl)-pyrrolidine], which melting point is on record?
Answer: Its melting point is 150 to 152 °C.

Question: With CC1CCN(CCCCCOc2ccccc2)CC1 (as salt: oxalate) [Example 9, 1-(5-phenoxypentyl)-4-methyl-piperidine] as the compound, how does the melting point read?
Answer: The melting point was 151 to 152 °C.

Question: For C[C@H]1C[C@H](C)CN(CCCCCOc2ccccc2)C1 (stereo in doubt) (as salt: oxalate) [Example 12, 1-(5-phenoxypentyl)-3,5-trans-dimethyl-piperidine], which melting point is on record?
Answer: The melting point was 154 to 155 °C.

Question: Which melting point does the source give for C[C@@H]1C[C@H](C)CN(CCCOc2ccc(C(=O)C3CC3)cc2)C1 (as salt: oxalate) [Example 102, 1-[3-(4-cyclopropylcarbonylphenoxy)propyl]-cis-3,5-dimethylpiperidine] here?
Answer: The melting point was 130 to 132 °C.

Question: With N#Cc1ccc(OCCCN2CCCC2)cc1 (as salt: oxalate) [Example 58, 1-[3-(4-cyanophenoxy)-propyl]-pyrrolidine] as the compound, how does the melting point read?
Answer: Its melting point is 163 to 165 °C.

Question: For CC(=O)c1ccc(OCCCN2CCCC(C)C2)cc1 (stereo not shown) (as salt: oxalate) [Example 66, 1-[3-(4-acetylphenoxy)-propyl]-3-methyl-piperidine], which melting point is on record?
Answer: The melting point was 143 to 144 °C.

Question: For C[C@H]1C[C@H](C)CN(CCCOc2ccc(C(=O)C3CC3)cc2)C1 (relative stereo) (as salt: oxalate) [Example 101, 1-[3-(4-cyclopropanecarbonylphenoxy)propyl]-trans-3,5 dimethylpiperidine], which melting point is on record?
Answer: Its melting point is 136 to 138 °C.

Question: For c1ccc(OCCCCCN2CCCCC2)cc1 (as salt: oxalate) [Example 1, 1-(5-phenoxypentyl)-piperidine], which melting point is on record?
Answer: The melting point was 143 to 145 °C.

Question: With c1ccc(OCCCCN2CCCC2)cc1 (as salt: oxalate) [Example 31, 1-(4-phenoxybutyl)-pyrrolidine] as the compound, how does the melting point read?
Answer: The melting point was 143 to 144 °C.

Question: For CC1CCCN(CCCCCOc2ccccc2)C1 (stereo not shown) [Example 10, 1-(5-phenoxypentyl)-3-methyl-piperidine], which melting point is on record?
Answer: Its melting point is 140 to 141 °C.

Question: For C1=CCN(CCCCCOc2ccccc2)CC1 (as salt: oxalate) [Example 17, 1-(5-phenoxypentyl)-1,2,3,6-tetrahydropyridine], which melting point is on record?
Answer: Its melting point is 177 to 179 °C.

Question: For CCN(CC)CCCOc1ccc(C(C)=O)cc1 (as salt: oxalate) [Example 46, N-[3-(4-acetylphenoxy)-propyl]-diethylamine], which melting point is on record?
Answer: The melting point was 108 to 110 °C.

Question: With CC1CCN(CCCOc2ccc([N+](=O)[O-])cc2)CC1 (as salt: oxalate) [Example 86, 1-[3-(4-nitrophenoxy)propyl]4-methylpiperidine] as the compound, how does the melting point read?
Answer: The melting point was 119 to 121 °C.

Question: Which melting point does the source give for CC(=O)N1CCN(CCCCCOc2ccccc2)CC1 (as salt: oxalate) [Example 11, 1-acetyl-4-(5-phenoxypentyl)-piperazine] here?
Answer: The melting point was 186 to 188 °C.

Question: Which melting point does the source give for O=C(Cc1ccccc1)c1ccc(OCCCCCN2CCCC2)cc1 (as salt: oxalate) [Example 45, 1-{5-[4-(phenylacetyl)-phenoxy]-pentyl}pyrrolidine] here?
Answer: The melting point was 177 to 178 °C.

Question: With CCC(=O)c1ccc(OCCCN2CCCC(C)C2)cc1 (stereo not shown) (as salt: oxalate) [Example 88, 1-[3-(4-propionylphenoxy)propyl]-3-methylpiperidine] as the compound, how does the melting point read?
Answer: The melting point was 135 to 136 °C.

Question: Which melting point does the source give for N#Cc1cccc(OCCCCCN2CCCC2)c1 (as salt: oxalate) [Example 41, 1-[5-(3-cyanophenoxy)-pentyl]-pyrrolidine] here?
Answer: Its melting point is 119 to 120 °C.

Question: For c1ccc(OCCCCCN2CCCC2)cc1 (as salt: oxalate) [Example 2, 1-(5-phenoxypentyl)-pyrrolidine], which melting point is on record?
Answer: Its melting point is 153 to 155 °C.

Question: Which melting point does the source give for O=C(c1ccc(OCCCN2CCCCC2)cc1)C1CCC1 (as salt: oxalate) [Example 89, 1-[3-(4-cyclobutylcarbonylphenoxy)propyl]piperidine] here?
Answer: Its melting point is 80 to 82 °C.

Question: Which melting point does the source give for CCN(CC)CCCOc1ccc(/C(C)=N/O)cc1 (as salt: oxalate) [Example 64, 4-(3-diethylaminopropoxy)-acetophenone-oxime] here?
Answer: Its melting point is 99 to 100 °C.

Question: For CN(C)S(=O)(=O)c1ccc(OCCCN2CCCCC2)cc1 (as salt: oxalate) [Example 110, 1-[3-(4-N,N-dimethylsulfonamidophenoxy)propyl]piperidine], which melting point is on record?
Answer: The melting point was 149 to 153 °C.

Question: For c1ccc(SCCCCN2CCCC2)cc1 (as salt: oxalate) [Example 34, 1-(4-phenylthiobutyl)-pyrrolidine], which melting point is on record?
Answer: Its melting point is 114 to 116 °C.

Question: With CC(=O)c1ccc(OCCCCCN2CCCC2)cc1 (as salt: oxalate) [Example 39, 1-[5-(4-acetylphenoxy)-pentyl]-pyrrolidine] as the compound, how does the melting point read?
Answer: The melting point was 130 to 134 °C.

Question: Which melting point does the source give for CC1CCCN(CCCCCOc2ccc([N+](=O)[O-])cc2)C1 (stereo not shown) (as salt: oxalate) [Example 38, 1-[5-(4-nitrophenoxy)-pentyl]-3-methyl-piperidine] here?
Answer: The melting point was 148 to 149 °C.

Question: For CCN(CC)CCCOc1ccc(C#N)cc1 (as salt: oxalate) [Example 43, N-[3-(4-cyanophenoxy)-propyl]-diethylamine], which melting point is on record?
Answer: The melting point was 148 to 150 °C.

Question: For N#Cc1ccc(OCCCN2CCCCCC2)cc1 (as salt: oxalate) [Example 60, N-[3-(4-cyanophenoxy)-propyl]-hexamethyleneimine], which melting point is on record?
Answer: Its melting point is 124 to 125 °C.

Question: With CC(C)C(=O)c1ccc(OCCCN2CCCCC2)cc1 (as salt: oxalate) [Example 72, 1-[3-(4-isobutyrylphenoxy)-propyl]-piperidine] as the compound, how does the melting point read?
Answer: Its melting point is 121 to 122 °C.

Question: For CC1CCCCN1CCCOc1ccc(C#N)cc1 (stereo not shown) (as salt: hydrochloride) [Example 98], which melting point is on record?
Answer: The melting point was 151 to 153 °C.

Question: Which melting point does the source give for N#Cc1ccc(OCCCCCN2CCCC2)cc1 (as salt: oxalate) [Example 22, 1-[5-(4-cyanophenoxy)-pentyl]-pyrrolidine] here?
Answer: The melting point was 129 to 130 °C.

Question: For CC(=O)CCc1ccc(OCCCN2CCCCC2)cc1.Cl, which melting point is on record?
Answer: Its melting point is 148 to 150 °C.

Question: With CC(=O)c1ccc(OCC(C)CN2CCCCC2)cc1 (stereo not shown) (as salt: oxalate) [Example 80, 1-[3-(4-acetylphenoxy)-2-S-methylpropyl]piperidine] as the compound, how does the melting point read?
Answer: Its melting point is 148 to 150 °C.

Question: For CN(C)CCCCCOc1ccc(C#N)cc1 (as salt: oxalate) [Example 53, N-[5-(4-cyanophenoxy)-pentyl]-dimethylamine], which melting point is on record?
Answer: Its melting point is 148 to 149 °C.

Question: With CCCN(CCC)CCCOc1ccc(C#N)cc1 (as salt: oxalate) [Example 62, N-[3-(4-cyanophenoxy)-propyl]-dipropylamine] as the compound, how does the melting point read?
Answer: Its melting point is 127 to 128 °C.

Question: For COC(=O)c1ccc(OCCCN2CCCCC2)cc1 (as salt: oxalate) [Example 103, 1-[3-(4-carbomethoxyphenoxy)propyl]piperidine], which melting point is on record?
Answer: Its melting point is 156 to 158 °C.

Question: For CCCC1CCN(CCCCCOc2ccccc2)CC1 (as salt: oxalate) [Example 8, 1-(5-phenoxypentyl)-4-propyl-piperidine], which melting point is on record?
Answer: Its melting point is 165 to 166 °C.

Question: For c1ccc(-c2ccc(OCCCCCN3CCCC3)cc2)cc1 (as salt: oxalate) [Example 26, 1-[5-(4-phenylphenoxy)-pentyl]-pyrrolidine], which melting point is on record?
Answer: Its melting point is 189 to 190 °C.

Question: For CC(=O)c1ccc(OCCCN2CCC(C)CC2)cc1 (as salt: oxalate) [Example 68, 1-[3-(4-acetylphenoxy)-propyl]-4-methyl-piperidine], which melting point is on record?
Answer: The melting point was 160 to 161 °C.
